Experimental findings from US6939830B1, “Method for fighting soil insects with phenyl-pyrazoles” (Basf Agro B.V. Arnhem (NL) - Wadenswil Branch, priority 1999, dated 2005) are described below.

For experiment [1], the system named is larvae of click beetles of the genus Agriotes, in particular Agriotes sordidus. The experiment can be described thus: Maize field trial, St Hilaire: emerged plants counted after bait granules incorporated in the sowing row. It counts as in vivo. To be noted: 22 days after sowing, 2 mm maize-meal granules with 0.25% fipronil, untreated 19. The text has this:
(§1) A surface of 0.1 ha is sown with maize at the rate of about 8000 untreated seeds. This surface is divided into 40-m^2 plots. At the same time as the sowing, there are incorporated into the soil, in the sowing row, 2 mm granules containing a composition consisting of: The quantities of granules thus spread vary from 2.5 to 10 kg per hectare. Untreated plots are kept to serve as control and to verify the extent of the damage by the insects. Likewise, the plots will be treated with a commercial insecticide which is reputed effective and called reference. Each modality is repeated four times. Approximately 20 days after sowing, the maize plants which have emerged are counted. The soil is dug out and scraped in order to capture and identify the insects responsible for the damage; a large presence of larvae of click beetles of the genus Agriotes, in particular Agriotes sordidus, is observed for the untreated control.

Experiment [2] deals with larvae of click beetles of the genus Agriotes, in particular Agriotes lineatus. The experiment can be described thus: Maize field trial, Beaufort: emerged plants counted after bait granules incorporated in the sowing row. The class given is in vivo. The following applies: 50 days after sowing, 2 mm maize-meal granules with 0.25% fipronil, untreated 30.
Excerpt: as §1, with “1” for “0.1”, “98, 100” for “8000”, “27-m^2” for “40-m^2”, “50” for “20”, “lineatus.” for “sordidus, is observed for the untreated control.”

Where [3] appears, read: dose of fipronil 6 g per hectare.
Where [4] appears, read: dose of fipronil 50 g per hectare.

Consider `N#Cc1nn(-c2c(Cl)cc(C(F)(F)F)cc2Cl)c(N)c1[S+]([O-])C(F)(F)F` (stereo not shown) [fipronil, 5-amino-3-cyano-1-[2,6-di-chloro-4-(trifluoromethyl)phenyl]-4-[(trifluoromethyl)-sulphinyl]-1H-pyrazole], for which the “plants observed per 10 meters of furrow” value in experiment [1] (setting [3]) is on record as 49 plants per 10 meters of furrow; in experiment [1] (setting [4]), 49 plants per 10 meters of furrow; in experiment [2] (setting [3]) it was 40 plants per 10 meters of furrow; in experiment [2] (setting [4]) it was 49.8 plants per 10 meters of furrow.
